Experimental data taken from US20040156869A1, “2-substituted quinazolin-4-ylamine analogues” (Neurogen Corporation, priority 2002, published 2004).
pKi: −log10 of the molar value.

Biological target: human capsaicin receptor (VR1) (Homo sapiens, UniProt Q8NER1)
Experiment: Capsaicin receptor binding assay ([3H]RTX competition, VR1-transfected HEK293 membranes)

Sequence of human capsaicin receptor (VR1) (Q8NER1 whole entry): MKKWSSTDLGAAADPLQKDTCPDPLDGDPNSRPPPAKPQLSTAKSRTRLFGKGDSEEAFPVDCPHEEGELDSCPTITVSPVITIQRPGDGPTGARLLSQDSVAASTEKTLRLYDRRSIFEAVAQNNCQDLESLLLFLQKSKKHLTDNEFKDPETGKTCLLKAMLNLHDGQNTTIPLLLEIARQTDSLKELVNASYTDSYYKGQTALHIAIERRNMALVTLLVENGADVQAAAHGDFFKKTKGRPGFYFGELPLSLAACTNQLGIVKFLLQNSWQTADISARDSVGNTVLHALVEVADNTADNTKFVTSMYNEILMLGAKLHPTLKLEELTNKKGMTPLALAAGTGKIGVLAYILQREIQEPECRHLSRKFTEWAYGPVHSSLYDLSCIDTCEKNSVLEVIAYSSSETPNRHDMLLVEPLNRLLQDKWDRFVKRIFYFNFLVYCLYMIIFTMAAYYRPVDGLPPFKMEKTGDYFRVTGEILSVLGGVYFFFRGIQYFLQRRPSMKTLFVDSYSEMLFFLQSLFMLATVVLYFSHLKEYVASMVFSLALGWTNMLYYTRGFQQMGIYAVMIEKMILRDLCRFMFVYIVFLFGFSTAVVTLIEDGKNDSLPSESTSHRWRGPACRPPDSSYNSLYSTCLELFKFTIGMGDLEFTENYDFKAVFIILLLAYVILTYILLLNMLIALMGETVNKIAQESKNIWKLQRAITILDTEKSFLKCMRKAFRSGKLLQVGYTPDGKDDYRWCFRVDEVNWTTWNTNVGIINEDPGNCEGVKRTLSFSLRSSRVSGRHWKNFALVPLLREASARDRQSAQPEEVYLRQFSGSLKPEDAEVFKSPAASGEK

| pKi | SMILES |
| --- | --- |
| > 6.00 | CC(C)c1ccc(Nc2nc(C3CCN(C)CC3)nc3nc(-c4ncccc4Cl)ccc23)cc1 [Compound 770, [7-(3-Chloro-pyridin-2-yl)-2-(1-methyl-piperidin-4-yl)-pyrido[2,3-d]pyrimidin-4-yl]-(4-isopropyl-phenyl)-amine] |
| > 6.00 | FC(F)(F)c1ccc(Nc2nc(CN3CCCCCC3)nc3cc(-c4ncccc4C(F)(F)F)cnc23)cc1 [Compound 659, [2-Azepan-1-ylmethyl-7-(3-trifluoromethyl-pyridin-2-yl)-pyrido[3,2-d]pyrimidin-4-yl]-(4-trifluoromethyl-phenyl)-amine] |
| > 6.00 | CC(C)c1ccc(Nc2nc(COC3CCOCC3)nc3cc(-c4ncccc4C(F)(F)F)ccc23)cc1 [Compound 101, (4-Isopropyl-phenyl)-[2-(tetrahydro-pyran-4-yloxymethyl)-7-(3-trifluoromethyl-pyridin-2-yl)-quinazolin-4-yl]-amine] |
| > 6.00 | O=C(c1nc(Nc2ccc(C(F)(F)F)cc2)c2ccc(-c3ncccc3C(F)(F)F)nc2n1)N1CCCC1 [Compound 459, Pyrrolidin-1-yl-[4-(4-trifluoromethyl-phenylamino)-7-(3-trifluoromethyl-pyridifl-2-yl)-pyrido[2,3-d]pyrimidin-2-yl]-methanone] |
| > 6.00 | CCCCCCNCc1nc(Nc2ccc(C(F)(F)F)cc2)c2ccc(-c3ncccc3C(F)(F)F)cc2n1 [Compound 539, [2-Hexylaminomethyl-7-(3-trifluoromethyl-pyridin-2-yl)-quinazolin-4-yl]-(4-trifluoromethyl-phenyl)-amine] |
| > 6.00 | COCc1nc(Nc2ccc(S(C)(=O)=O)cc2)c2ccc(-c3ncccc3C(F)(F)F)nc2n1 [Compound 112, (4-Methanesulfonyl-phenyl)-[2-methoxymethyl-7-(3-trifluoromethyl-pyridin-2-yl)-pyrido[2,3-d]pyrimidin-4-yl]-amine] |
| > 6.00 | Cc1cccnc1-c1ccc2c(Nc3ccc(C(C)(C)C#N)cc3)nc(C3CCOC3)nc2n1 (centres unmarked) [Compound 175, 2-Methyl-2-{4-[7-(3-methyl-pyridin-2-yl)-2-(tetrahydro-furan-3-yl)-pyrido[2,3-d]pyrimidin-4-ylamino]-phenyl}-propionitrile] |
| > 6.00 | CC(C)[C@H](OCc1nc(Nc2ccc(C(C)(C)C)cc2)c2ccc(-c3ncccc3C(F)(F)F)cc2n1)C(=O)O [Compound 230, (S)-2-[4-(4-tert-Butyl-phenylamino)-7-(3-trifluoromethyl-pyridin-2-yl)-quinazolin-2-ylmethoxy]-3-methyl-butyric acid] |
| > 6.00 | FC(F)(F)c1cccc(Nc2nc(CN3CCOCC3)nc3cc(-c4ncccc4C(F)(F)F)cnc23)n1 [Compound 545, [2-Morpholin-4-ylmethyl-7-(3-trifluoromethyl-pyridin-2-yl)-pyrido[3,2-d]pyrimidin-4-yl]-(6-trifluoromethyl-pyridin-2-yl)-amine] |
| > 6.00 | Cc1cccnc1-c1ccc2c(Nc3ccc(C(F)(F)F)cc3)nc(CO)nc2n1 [Compound 119, [7-(3-Methyl-pyridin-2-yl)-4-(4-trifluoromethyl-phenylamino)-pyrido[2,3-d]pyrimidin-2-yl]-methanol] |
| > 6.00 | COCc1nc(Nc2ccc(C(C)(C)COC)cc2)c2ccc(-c3ncccc3C(F)(F)F)cc2n1 [Compound 36, [4-(2-Methoxy-1,1-dimethyl-ethyl)-phenyl]-[2-methoxymethyl-7-(3-trifluoromethyl-pyridin-2-yl)-quinazolin-4-yl]-amine] |
| > 6.00 | O=C(O)[C@@H]1CCCN1C(=O)c1nc(Nc2ccc(C(F)(F)F)cc2)c2ccc(-c3ncccc3C(F)(F)F)nc2n1 [Compound 768, (S)-1-[4-(4-Trifluoromethyl-phenylamino)-7-(3-trifluoromethyl-pyridin-2-yl)-pyrido[2,3-d]pyrimidine-2-carbonyl]-pyrrolidine-2-carboxylic acid] |
| > 6.00 | COCc1nc(Nc2ccc(C(C)C)cc2)c2ccc(-c3nccnc3Cl)nc2n1 [Compound 237, [7-(3-Chloro-pyrazin-2-yl)-2-methoxymethyl-pyrido[2,3-d]pyrimidin-4-yl]-(4-isopropyl-phenyl)-amine] |
| > 6.00 | C[C@@H]1CN(Cc2nc(Nc3ccc(C(F)(F)F)cc3)c3ccc(-c4ncccc4C(F)(F)F)nc3n2)C[C@H](C)O1 [Compound 748, [2-(2,6-Dimethyl-morpholin-4-ylmethyl)-7-(3-trifluoromethyl-pyridin-2-yl)-pyrido[2,3-d]pyrimidin-4-yl]-(4-trifluoromethyl-phenyl)-amine (cis)] |
| > 6.00 | FC(F)(F)c1ccc(Nc2nc(CNCc3ccccn3)nc3cc(-c4ncccc4C(F)(F)F)ccc23)cn1 [Compound 578, [2-{[(Pyridin-2-ylmethyl)-amino]-methyl}-7-(3-trifluoromethyl-pyridin-2-yl)-quinazolin-4-yl]-(6-trifluoromethyl-pyridin-3-yl)-amine] |
| > 6.00 | CCOCc1nc(Nc2ccc(C(C)(C)C)nc2)c2ccc(-c3ncccc3Cl)cc2n1 [Compound 82, (6-tert-Butyl-pyridin-3-yl)-[7-(3-chloro-pyridin-2-yl)-2-ethoxymethyl-quinazolin-4-yl]-amine] |
| > 6.00 | CCOCc1nc(Nc2ccc(S(=O)(=O)C(F)(F)F)cc2)c2ccc(-c3ncccc3C)nc2n1 [Compound 140, [2-Ethoxymethyl-7-(3-methyl-pyridin-2-yl)-pyrido[2,3-d]pyrimidin-4-yl]-(4-trifluoromethanesulfonyl-phenyl)-amine] |
| > 6.00 | OCc1nc(Nc2ccc(C(F)(F)F)cc2)c2ncc(-c3ncccc3C(F)(F)F)cc2n1 [Compound 121, [4-(4-Trifluoromethyl-phenylamino)-7-(3-trifluoromethyl-pyridin-2-yl)-pyrido[3,2-d]pyrimidin-2-yl]-methanol] |
| > 6.00 | FC(F)(F)c1ccc(Nc2nc(CN3CCc4ccccc4C3)nc3cc(-c4ncccc4C(F)(F)F)ccc23)cn1 [Compound 352, [2-(3,4-Dihydro-1H-isoquinolin-2-ylmethyl)-7-(3-trifluoromethyl-pyridin-2-yl)-quinazolin-4-yl]-(6-trifluoromethyl-pyridin-3-yl)-amine] |
| > 6.00 | CCOCc1nc(Nc2ccc(C(F)(F)F)nc2)c2ccc(-c3ncccc3C(F)(F)F)nc2n1 [Compound 224, [2-Ethoxymethyl-7-(3-trifluoromethyl-pyridin-2-yl)-pyrido[2,3-d]pyrimidin-4-yl]-(6-trifluoromethyl-pyridin-3-yl)-amine] |
| > 6.00 | OCc1cc2nc(-c3ncccc3C(F)(F)F)ccc2c(Nc2ccc(C(F)(F)F)cc2)n1 [Compound 286, [5-(4-Trifluoromethyl-phenylamino)-2-(3-trifluoromethyl-pyridin-2-yl)-[1,6]naphthyridin-7-yl]-methanol] |
| > 6.00 | C[C@@H]1CN(Cc2nc(Nc3ccc(C(F)(F)F)cc3)c3ncc(-c4ncccc4C(F)(F)F)cc3n2)C[C@@H](C)O1 [Compound 657, (R,R)-[2-(2,6-Dimethyl-morpholin-4-ylmethyl)-7-(3-trifluoromethyl-pyridin-2-yl)-pyrido[3,2-d]pyrimidin-4-yl]-(4-trifluoromethyl-phenyl)-amine] |
| > 6.00 | CC1(C)CN(Cc2nc(Nc3ccc(C4CC4)cc3)c3ccc(-c4ncccc4C(F)(F)F)cc3n2)CCO1 [Compound 741, (4-Cyclopropyl-phenyl)-[2-(2,2-dimethyl-morpholin-4-ylmethyl)-7-(3-trifluoromethyl-pyridin-2-yl)-quinazolin-4-yl]-amine] |
| > 6.00 | CN(Cc1nc(Nc2ccc(C(F)(F)F)cc2)c2ccc(-c3ncccc3C(F)(F)F)cc2n1)C1CCc2ccccc21 (centres unmarked) [Compound 324, [2-[(Indan-1-yl-methyl-amino)-methyl]-7-(3-trifluoromethyl-pyridin-2-yl)-quinazolin-4-yl]-(4-trifluoromethyl-phenyl)-amine] |
| > 6.00 | CC(c1ccc(Nc2nc(CN3CCOCC3)nc3cc(-c4ncccc4C(F)(F)F)ccc23)cc1)C(F)(F)F (centres unmarked) [Compound 524, [2-Morpholin-4-ylmethyl-7-(3-trifluoromethyl-pyridin-2-yl)-quinazolin-4-yl]-[4-(2,2,2-trifluoro-1-methyl-ethyl)-phenyl]-amine] |
| > 6.00 | Cc1cccnc1-c1ccc2c(Nc3ccc(C(C)C)cc3)nc(CN3CCOCC3)nc2c1 [Compound 712, (4-Isopropyl-phenyl)-[7-(3-methyl-pyridin-2-yl)-2-morpholin-4-ylmethyl-quinazolin-4-yl]-amine] |
| > 6.00 | OCC1CCCCN1Cc1nc(Nc2ccc(C(F)(F)F)cc2)c2ccc(-c3ncccc3C(F)(F)F)cc2n1 (centres unmarked) [Compound 497, {1-[4-(4-Trifluoromethyl-phenylamino)-7-(3-trifluoromethyl-pyridin-2-yl)-quinazolin-2-ylmethyl]piperidin-2-yl}-methanol] |
| > 6.00 | CC(C)OCc1nc(Nc2ccc(S(N)(=O)=O)cc2)c2ccc(-c3ncccc3Cl)nc2n1 [Compound 279, 4-{7-(3-Chloro-pyridin-2-yl)-2-isopropoxymethyl-pyrido[2,3-d]pyrimidin-4-ylamino]-benzenesulfonamide] |
| > 6.00 | COCc1nc(Nc2ccc(C#N)cc2)c2ncc(-c3ncccc3C(F)(F)F)cc2n1 [Compound 55, 4-[2-Methoxymethyl-7-(3-trifluoromethyl-pyridin-2-yl)-pyrido[3,2-d]pyrimidin-4-ylamino]-benzonitrile] |

| SMILES | pKi |
| --- | --- |
| CCOc1ccc(Nc2nc(COCC(C)C)nc3nc(-c4ncccc4C(F)(F)F)ccc23)cc1 [Compound 251, (4-Ethoxy-phenyl)-[2-isobutoxymethyl-7-(3-trifluoromethyl-pyridin-2-yl)-pyrido[2,3-d]pyrimidin-4-yl]-amine] | > 6.00 |
| CC(C)COCc1nc(Nc2ccc(C(C)(C)C)cc2)c2ccc(-c3ncccc3C(F)(F)F)nc2n1 [Compound 162, (4-terr-Butyl-phenyl)-[2-isobutoxymethyl-7-(3-trifluoromethyl-pyridin-2-yl)-pyrido[2,3-d]pyrimidin-4-yl]-amine] | > 6.00 |
| CC(C)COCc1nc(Nc2ccc(C(C)(C)C#N)cc2)c2ccc(-c3ncccc3C(F)(F)F)nc2n1 [Compound 167, 2-{4-[2-Isobutoxymethyl-7-(3-trifluoromethyl-pyridin-2-yl)-pyrido[2,3-d]pyrimidin-4-ylamino]-phenyl}-2-methyl-propionitrile] | > 6.00 |
